The results in this text go back to US20250171438A1 (Agios Pharmaceuticals, Inc., priority 2022, published 2025).

Molecules are shown by their SMILES.

One test has as its target T1, human PAH with the R408W mutation (Homo sapiens, UniProt P00439, R408W).
T1 construct: expressed in transfected cells
T1 sequence (P00439 1-452 R408W): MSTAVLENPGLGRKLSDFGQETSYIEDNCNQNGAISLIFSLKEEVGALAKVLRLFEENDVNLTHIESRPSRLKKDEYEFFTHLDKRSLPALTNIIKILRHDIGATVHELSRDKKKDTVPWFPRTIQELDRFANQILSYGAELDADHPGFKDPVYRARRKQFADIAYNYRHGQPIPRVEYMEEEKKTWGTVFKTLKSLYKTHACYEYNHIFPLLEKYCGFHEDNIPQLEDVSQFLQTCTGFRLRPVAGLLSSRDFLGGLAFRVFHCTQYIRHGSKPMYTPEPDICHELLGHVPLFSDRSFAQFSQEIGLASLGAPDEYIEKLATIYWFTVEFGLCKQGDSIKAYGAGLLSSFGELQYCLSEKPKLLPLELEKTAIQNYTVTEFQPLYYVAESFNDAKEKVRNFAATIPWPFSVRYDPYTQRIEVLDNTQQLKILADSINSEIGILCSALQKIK
Put plainly: Cell Based Phenylalanine Flux Assay. The settings on record: A375 cells expressing human R408W PAH; 24 hrs compound incubation; 13C-Tyrosine by LC-MS; average where tested multiple times; read-out: AC50.
Regarding `O=C(c1nc(Cl)cs1)N1CCc2[nH]cnc2[C@H]1c1nc2ccc(Cl)cc2[nH]1` [Example 955, (S)-(4-(6-chloro-1H-benzo[d]imidazol-2-yl)-6,7-dihydro-1H-imidazo[4,5-c]pyridin-5(4H)-yl)(4-chlorothiazol-2-yl)methanone], the half-maximal activity concentration (AC50) lay within 500 to 1000 nM.

For the molecule `CC(C)(F)c1ncc(C(=O)N2CCc3[nH]cnc3[C@H]2c2nc3ccccc3s2)s1` [Example 1463], the AC50 is below 500 nM. On the same count and under the same terms, under `O=C(c1cnn2cc(F)ccc12)N1CCc2[nH]cnc2[C@H]1c1nc2ccccc2s1` [Example 1039] stands 500 to 1000 nM; under `O=C(c1ccon1)N1CCc2[nH]cnc2[C@H]1c1nc2ccc(Cl)cc2[nH]1` [Example 969, (S)-(4-(6-chloro-1H-benzo[d]imidazol-2-yl)-6,7-dihydro-1H-imidazo[4,5-c]pyridin-5(4H)-yl)(isoxazol-3-yl)methanone], 500 to 1000 nM; under `O=C(c1cnn2cc(-c3ccccc3)ccc12)N1CCc2[nH]cnc2[C@@H]1c1nc2ccccc2s1` [Example 1210, (R)-(4-(benzo[d]thiazol-2-yl)-6,7-dihydro-1H-imidazo[4,5-c]pyridin-5(4H)-yl)(6-phenylpyrazolo[1,5-a]pyridin-3-yl)methanone], above 5000 nM. Still for that read-out and setting: next, `O=C(c1oc(CCC2CC2)nc1C(F)(F)F)N1CCCc2[nH]cnc2[C@H]1c1nc2ccccc2s1` [Example 2135, (S)-(4-(benzo[d]thiazol-2-yl)-7,8-dihydroimidazo[4,5-c]azepin-5(1H,4H,6H)-yl)(2-(2-cyclopropylethyl)-4-(trifluoromethyl)oxazol-5-yl)methanone]: below 500 nM. The same measure, in the same setting: under `C[C@H]1CN(C(=O)c2ocnc2C2CC2)[C@H](c2nc3c(F)cccc3s2)c2nc[nH]c21` [Example 1608, (4-cyclopropyloxazol-5-yl)((4S,7S)-4-(4-fluorobenzo[d]thiazol-2-yl)-7-methyl-6,7-dihydro-1H-imidazo[4,5-c]pyridin-5(4H)-yl)methanone] stands 500 to 1000 nM. As for `O=C(c1cncs1)N1CCc2[nH]cnc2[C@H]1c1ncc(-c2ccccc2)s1` [Example 2145], the AC50 is below 500 nM.

On to `O=C(c1oc(NC2CC2)nc1C(F)(F)F)N1CCCc2[nH]cnc2[C@@H]1c1nc2ccccc2s1` [Example 2128, (R)-(4-(benzo[d]thiazol-2-yl)-7,8-dihydroimidazo[4,5-c]azepin-5(1H,4H,6H)-yl)(2-(cyclopropylamino)-4-(trifluoromethyl)oxazol-5-yl)methanone], for which the concentration at half-maximal activity (AC50) is 1000 to 5000 nM. Still for that read-out and setting: next, `O=C(c1nc(Cl)cs1)N1CCc2[nH]cnc2[C@@H]1c1nc2cc(F)ccc2s1` [Example 1298, (R)-(4-chlorothiazol-2-yl)(4-(5-fluorobenzo[d]thiazol-2-yl)-6,7-dihydro-1H-imidazo[4,5-c]pyridin-5(4H)-yl)methanone]: 1000 to 5000 nM. With `O=C(c1oc(C2(O)CC2)nc1C(F)F)N1CCc2[nH]cnc2[C@H]1c1nc2ccccc2s1` [Example 2055], the AC50 was below 500 nM. Consider `O=C(c1nccs1)N1CCc2[nH]cnc2[C@H]1c1nc2ccccc2s1` [Example 1007], for which the half-maximal activity concentration (AC50) was below 500 nM. Still for that read-out and setting: under `O=C(c1oc(/C=C/C2CC2)nc1C(F)(F)F)N1CCc2[nH]cnc2[C@H]1c1nc2ccccc2s1` [Example 1567] stands 500 to 1000 nM; under `Cc1nc(CCCN2CC(F)C2)oc1C(=O)N1CCc2[nH]cnc2[C@@H]1c1nc2ccccc2s1` [Example 1672, (R)-(4-(benzo[d]thiazol-2-yl)-6,7-dihydro-1H-imidazo[4,5-c]pyridin-5(4H)-yl)(2-(3-(3-fluoroazetidin-1-yl)propyl)-4-methyloxazol-5-yl)methanone], above 5000 nM; under `Cc1nc(CCN(C)C)oc1C(=O)N1CCc2[nH]cnc2[C@H]1c1nc2ccccc2s1` [Example 1659], 1000 to 5000 nM.

In the case of `Cc1nnc(C(=O)N2CC3(CC3)c3[nH]cnc3[C@H]2c2nc3ccccc3s2)o1` [Example 1686, (S)-(4′-(benzo[d]thiazol-2-yl)spiro[cyclopropane-1,7′-imidazo[4,5-c]pyridin]-5′(1′H,4′H,6′H)-yl)(5-methyl-1,3,4-oxadiazol-2-yl)methanone], the AC50 fell in the range of 500 to 1000 nM. Same read-out and setting: next, `C[C@@H]1CN(C(=O)c2nnc(-c3cnn(C)c3)o2)[C@H](c2nc3ccccc3s2)c2nc[nH]c21` [Example 1750, ((4S,7R)-4-(benzo[d]thiazol-2-yl)-7-methyl-6,7-dihydro-1H-imidazo[4,5-c]pyridin-5(4H)-yl)(5-(1-methyl-1H-pyrazol-4-yl)-1,3,4-oxadiazol-2-yl)methanone]: 500 to 1000 nM; `O=C(c1ocnc1C(F)F)N1CCc2[nH]cnc2[C@@H]1c1nc2c(F)cccc2s1` [Example 1616, (R)-(4-(difluoromethyl)oxazol-5-yl)(4-(4-fluorobenzo[d]thiazol-2-yl)-6,7-dihydro-1H-imidazo[4,5-c]pyridin-5(4H)-yl)methanone]: 500 to 1000 nM. On the same count and under the same terms, next, `Cn1cc(-c2ccc3c(C(=O)N4CCc5[nH]cnc5[C@@H]4c4nc5ccccc5s4)cnn3c2)cn1` [Example 1214, (R)-(4-(benzo[d]thiazol-2-yl)-6,7-dihydro-1H-imidazo[4,5-c]pyridin-5(4H)-yl)(6-(1-methyl-1H-pyrazol-4-yl)pyrazolo[1,5-a]pyridin-3-yl)methanone]: 1000 to 5000 nM; `COc1ccn2ncc(C(=O)N3CCc4[nH]cnc4[C@H]3c3nc4ccccc4s3)c2c1` [Example 1083]: below 500 nM. Same read-out and setting: under `CCn1ncnc1C(=O)N1CCc2[nH]cnc2[C@@H]1c1nc2ccccc2s1` [Example 1957, (R)-(4-(benzo[d]thiazol-2-yl)-6,7-dihydro-1H-imidazo[4,5-c]pyridin-5(4H)-yl)(1-ethyl-1H-1,2,4-triazol-5-yl)methanone] stands below 500 nM. As for `CN(C)Cc1nc(C(F)F)c(C(=O)N2CCc3[nH]cnc3[C@@H]2c2nc3ccccc3s2)o1` [Example 1782, (R)-(4-(benzo[d]thiazol-2-yl)-6,7-dihydro-1H-imidazo[4,5-c]pyridin-5(4H)-yl)(4-(difluoromethyl)-2-((dimethylamino)methyl)oxazol-5-yl)methanone], the AC50 fell in the range of 500 to 1000 nM.

On to `O=C(c1cnc(NC2CC2)s1)N1CCc2[nH]cnc2[C@@H]1c1nc2ccccc2s1` [Example 1184, (R)-(4-(benzo[d]thiazol-2-yl)-6,7-dihydro-1H-imidazo[4,5-c]pyridin-5(4H)-yl)(2-(cyclopropylamino)thiazol-5-yl)methanone], for which the AC50 was in the range of 1000 to 5000 nM.

As to `CN1CCN(c2nc(C(F)(F)F)c(C(=O)N3CCc4[nH]cnc4[C@H]3c3nc4c(F)cccc4s3)o2)CC1` [Example 1623, (S)-(4-(4-fluorobenzo[d]thiazol-2-yl)-6,7-dihydro-1H-imidazo[4,5-c]pyridin-5(4H)-yl)(2-(4-methylpiperazin-1-yl)-4-(trifluoromethyl)oxazol-5-yl)methanone], the AC50 is below 500 nM. The same measure, in the same setting: next, `O=C(c1cn(-c2ccccn2)nc1Cl)N1CCc2[nH]cnc2[C@@H]1c1nc2c(F)cccc2s1` [Example 1770, (R)-(3-chloro-1-(pyridin-2-yl)-1H-pyrazol-4-yl)(4-(4-fluorobenzo[d]thiazol-2-yl)-6,7-dihydro-1H-imidazo[4,5-c]pyridin-5(4H)-yl)methanone]: 1000 to 5000 nM. The same measure, in the same setting: next, `O=C(c1nnc(-c2ccc(F)c(F)c2)o1)N1CCc2[nH]cnc2[C@H]1c1nc2c(F)cccc2s1` [Example 1878, (S)-(5-(3,4-difluorophenyl)-1,3,4-oxadiazol-2-yl)(4-(4-fluorobenzo[d]thiazol-2-yl)-6,7-dihydro-1H-imidazo[4,5-c]pyridin-5(4H)-yl)methanone]: below 500 nM. Same read-out and setting: next, `Cn1nc(Br)nc1C(=O)N1CCc2[nH]cnc2[C@@H]1c1nc2ccccc2s1` [Example 1978, (R)-(4-(benzo[d]thiazol-2-yl)-6,7-dihydro-1H-imidazo[4,5-c]pyridin-5(4H)-yl)(3-bromo-1-methyl-1H-1,2,4-triazol-5-yl)methanone]: 1000 to 5000 nM. As to `N#Cc1nc(OCCC(F)(F)F)oc1C(=O)N1CCc2[nH]cnc2[C@H]1c1nc2ccccc2s1` [Example 1674, (S)-5-(4-(benzo[d]thiazol-2-yl)-4,5,6,7-tetrahydro-1H-imidazo[4,5-c]pyridine-5-carbonyl)-2-(3,3,3-trifluoropropoxy)oxazole-4-carbonitrile], the concentration at half-maximal activity (AC50) lay within 500 to 1000 nM. The same measure, in the same setting: next, `O=C(c1cnn2ccc(Cl)cc12)N1CCc2[nH]cnc2[C@H]1c1nc2cccc(F)c2s1` [Example 1301]: below 500 nM.

As to `Cc1nc(-c2cnn(C)c2)oc1C(=O)N1CCc2[nH]cnc2[C@H]1c1nc2ccccc2s1` [Example 1376], the AC50 was below 500 nM.

The same test, now with this note: A375 cells expressing human R408W PAH; 24 hrs with compound; 13C-Tyrosine by LC-MS; average where tested multiple times; read-out: AC50.
With `O=C(c1cnn2cc(F)ccc12)N1CCc2[nH]cnc2C1c1nc2ccc(F)cc2s1` (centres unmarked), the concentration at half-maximal activity (AC50) was in the range of 1000 to 5000 nM.

For the molecule `O=C(c1ccc(F)cc1)N1CCc2[nH]cnc2C1c1nc2ccccc2[nH]1` (centres unmarked), the concentration at half-maximal activity (AC50) was 1000 to 5000 nM.

Regarding `c1ccc2oc(N3CCc4[nH]cnc4C3c3nc4ccccc4s3)nc2c1` (centres unmarked), the AC50 lay in the range of 1000 to 5000 nM. The same measure, in the same setting: next, `O=C(c1cnc(-c2ccccn2)o1)N1CCc2[nH]cnc2[C@H]1c1nc2ccccc2[nH]1` [(S)-(4-(1H-benzo[d]imidazol-2-yl)-6,7-dihydro-1H-imidazo[4,5-c]pyridin-5(4H)-yl)(2-(pyridin-2-yl)oxazol-5-yl)methanone]: 1000 to 5000 nM; `O=C(Cc1nccs1)N1CCc2[nH]cnc2C1c1nc2cccc(F)c2s1` (centres unmarked): above 5000 nM.
